The results in this text go back to patent US8648180B2, “Compound Smilaxchinoside F” (Guilin Sanjin Pharmaceuticals Co., Ltd., priority 2010, dated 2014).

Several values for one entry are separate records, joined by “and”; a condition that tells them apart may be missing. Equal values may be shown once.

For this test, the system named is Human lung cancer cells Spc-A1. In words: MTT method, anti-proliferation on lung cancer cell line SPC-A1. The format is cell-based. As to conditions: for Inhibition rate (%) / OD value: 5Fu 10^−4 mol/L; for OD value: A at 490 nm, x ± s, n = 5. The protocol: Human lung cancer cells Spc-A1 (hereinafter referred to as SPC), is purchased from Wuhan Cell Collection Center (cell bank of China Center for Type CultureCollection).
The tumor cells are placed in the RPMI-1640 complete medium including 10% fetal calf serum and are cultured at 37° C. under 5% CO2 incubator. When the cell growth reaches the logarithmic phase (approximately 80% integration), cells are subcultured. The experiments are divided into negative control group (RPMI-1640), positive drug group (5Fu, 10^−4 mol·L^−1) and reagent group of Smilaxchinoside F at different concentrations, which are prepared by Guilin Sanjin Pharmaceutical Co., Ltd, in accordance with example 1 of the present invention.
5×10^7·L^−1 cells at logarithmic phase are seeded in 96-well plates, each well 180 μL. After culturing for 24 h, medicine is added, each well 20 μL, five parallel wells for each group. On 4 hours before the end of culture, 20 μL of 5 g·L^−1 MTT solution is added to the each well. After the end of the culture (48 h and 72 h), the supernatant is discarded. 150 μL of DMSO is added to each wells; the optical density (A value) of each well is detected by a microplate reader at 490 nm; the tumor suppression percentage is calculated.

On to `O=c1[nH]cc(F)c(=O)[nH]1` [5Fu], for which the “Effect on SPA (lung cancer) cell proliferation in vitro, in words” value was “significant anti-tumor effect”. For the same compound, for the setting “48 h”, the “Inhibition rate (%)” value was 39.4% and 39.37%; the OD value was 0.372 ± 0.031. For the setting “72 h”, the “Inhibition rate (%)” value is 59.6% and 59.61%; the OD value was determined as 0.295 ± 0.026.
